Experimental data: ChEMBL document CHEMBL3046805, “Synthesis and antimalarial evaluation of novel pyridine quinoline hybrids” (Med Chem Res, 2008)

Experiments:
Plasmodium falciparum [1] = experiment: Antiplasmodial activity against chloroquine-sensitive Plasmodium falciparum after 30 to 34 hr by schizont maturation assay; format: functional, organism-based
Plasmodium falciparum [2] = experiment: Antiplasmodial activity against chloroquine-sensitive Plasmodium falciparum assessed as vacuolar accumulation ratio; format: functional
[3] = Inhibition of beta-hematin polymerization after 24 hr by spectrophotometric analysis; format: physicochemical

| IC50 (Plasmodium falciparum [1]) [mM] | IC50 [3] [mM] | SMILES | Ratio (Plasmodium falciparum [2]) |
| --- | --- | --- | --- |
| – | 1.89 | CCN(CC)CCCC(C)Nc1ccnc2cc(Cl)ccc12 (stereo not given) [CHLOROQUINE] | – |
| 0.0037 | 2.11 | Clc1ncccc1Oc1cc2c(c3ncccc13)Oc1ncccc1O2 | 1.2 |
| 0.0064 | 2.17 | Brc1cc2c(c3ncccc13)Oc1ncccc1O2 | 1.03 |

| SMILES | IC50 (Plasmodium falciparum [1]) [mM] | IC50 [3] [mM] | Ratio (Plasmodium falciparum [2]) |
| --- | --- | --- | --- |
| Brc1cc2c(c3ncccc13)Oc1cc(Br)c3cccnc3c1O2 | 0.0074 | 2.78 | 1.01 |
